Measured values published in PubChem BioAssay AID256 (DTP/NCI, 2004).
Values joined by “and” are separate entries in the source; they are usually repeats but may differ in a detail not shown here. Equal entries are not always repeated. Toxic doses and inconclusive results are not listed. How the source made its calls: active means survival T/C of 150% or more; inactive means T/C below 125% in these data.

Test system: CD2F1 mice, L1210 leukemia ip, survival T/C
Assay: NCI In Vivo Anticancer Drug Screen. Data for tumor model L1210 Leukemia (intraperitoneal) in CD2F1 (CDF1) mice
Details: higher = longer survival
Procedure, shortened: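 Activity against a transplanted murine tumor was judged by comparing the compound group with a vehicle group. The outcome in the treated animals was divided by that in the controls.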

[1] = endpoint: mean survival time, dose: 25.0 mg/kg/injection, schedule: Q01DX009 (ip), vehicle: saline with Tween-80
[2] = endpoint: mean survival time, dose: 50.0 mg/kg/injection, schedule: Q01DX009 (ip), vehicle: saline with Tween-80
[3] = endpoint: mean survival time, dose: 100.0 mg/kg/injection, schedule: Q01DX009 (ip), vehicle: saline with Tween-80
[4] = endpoint: mean survival time, dose: 100.0 mg/kg/injection, schedule: Q04DX003 (ip), vehicle: saline with Tween-80
[5] = endpoint: mean survival time, dose: 200.0 mg/kg/injection, schedule: Q04DX003 (ip), vehicle: saline with Tween-80
[6] = endpoint: mean survival time, dose: 400.0 mg/kg/injection, schedule: Q04DX003 (ip), vehicle: saline with Tween-80
[7] = endpoint: mean survival time, dose: 200.0 mg/kg/injection, schedule: Q01DX009 (ip), vehicle: saline with Tween-80
[8] = endpoint: mean survival time, dose: 400.0 mg/kg/injection, schedule: Q01DX009 (ip), vehicle: saline with Tween-80
[9] = endpoint: mean survival time, dose: 100.0 mg/kg/injection, schedule: Q04DX003 (ip), vehicle: saline
[10] = endpoint: mean survival time, dose: 200.0 mg/kg/injection, schedule: Q04DX003 (ip), vehicle: saline
[11] = endpoint: mean survival time, dose: 400.0 mg/kg/injection, schedule: Q04DX003 (ip), vehicle: saline
[12] = endpoint: mean survival time, dose: 100.0 mg/kg/injection, schedule: Q04DX002 (ip), vehicle: saline with Tween-80
[13] = endpoint: mean survival time, dose: 200.0 mg/kg/injection, schedule: Q04DX002 (ip), vehicle: saline with Tween-80

Measured: T/C

C[CH2][Sn]1([CH2]C)[O]C2C(CO)OC(n3ccc4c(N)ncnc43)C2[O]1 (stereo unspecified)
inactive: endpoint: mean survival time, dose: 0.78 mg/kg/injection, schedule: Q01DX005 (ip), vehicle: other 110 % of control | endpoint: mean survival time, dose: 1.56 mg/kg/injection, schedule: Q01DX005 (ip), vehicle: other 104 % of control | endpoint: mean survival time, dose: 3.13 mg/kg/injection, schedule: Q01DX005 (ip), vehicle: other 117 % of control

Cc1ccc(S(=O)(=O)OC2COC3C(OS(=O)(=O)c4ccc(C)cc4)COC23)cc1 (stereo unspecified)
inactive: endpoint: mean survival time, dose: 100.0 mg/kg/injection, schedule: Q01DX001 (ip), vehicle: saline with Tween-80 93 % of control | endpoint: mean survival time, dose: 200.0 mg/kg/injection, schedule: Q01DX001 (ip), vehicle: saline with Tween-80 89 % of control | endpoint: mean survival time, dose: 400.0 mg/kg/injection, schedule: Q01DX001 (ip), vehicle: saline with Tween-80 88 % of control

CC1(C2CC(=O)c3c(O)ccc(O)c3C2)OCCO1 (stereo unspecified)
inactive: endpoint: mean survival time, dose: 25.0 mg/kg/injection, schedule: Q01DX009 (ip), vehicle: Klucel (hydroxypropylcellulose) (HPC) 104 % of control | endpoint: mean survival time, dose: 50.0 mg/kg/injection, schedule: Q01DX009 (ip), vehicle: Klucel (hydroxypropylcellulose) (HPC) 109 % of control | endpoint: mean survival time, dose: 100.0 mg/kg/injection, schedule: Q01DX009 (ip), vehicle: Klucel (hydroxypropylcellulose) (HPC) 95 % of control | endpoint: mean survival time, dose: 200.0 mg/kg/injection, schedule: Q01DX009 (ip), vehicle: Klucel (hydroxypropylcellulose) (HPC) 98 % of control | endpoint: mean survival time, dose: 400.0 mg/kg/injection, schedule: Q01DX009 (ip), vehicle: Klucel (hydroxypropylcellulose) (HPC) 102 % of control

CC(c1ccccc1)n1cncc1C(=O)N1CCN(C)CC1 (stereo unspecified)
inactive: [1] 105 % of control | [2] 96 % of control | [3] 94 % of control and 95 % of control | [4] 92 % of control | [5] 91 % of control | [6] 97 % of control

CC(=O)Nc1ccc(C(C)=O)cc1[N+](=O)[O-]
inactive: [3] 91 % of control | [4] 101 % of control | [7] 95 % of control | [5] 100 % of control | [8] 95 % of control | [6] 100 % of control

CCOP(=O)(OCC)c1ncn(C2OC(CO)C3OC(C)(C)OC32)c1N (stereo unspecified)
inactive: endpoint: mean survival time, dose: 12.5 mg/kg/injection, schedule: Q01DX005 (ip), vehicle: water 92 % of control | endpoint: mean survival time, dose: 25.0 mg/kg/injection, schedule: Q01DX005 (ip), vehicle: water 100 % of control | endpoint: mean survival time, dose: 50.0 mg/kg/injection, schedule: Q01DX005 (ip), vehicle: water 96 % of control | endpoint: mean survival time, dose: 100.0 mg/kg/injection, schedule: Q01DX005 (ip), vehicle: water 92 % of control | endpoint: mean survival time, dose: 200.0 mg/kg/injection, schedule: Q01DX005 (ip), vehicle: water 92 % of control

O=S(=O)(Oc1ccccc1)c1c(F)c(F)c(F)c(F)c1F
inactive: [1] 94 % of control | [2] 94 % of control | [3] 90 % of control | [4] 95 % of control

O=c1nc(N2CCCCCC2)ccn1C1OC(CO)C(O)C1O (stereo unspecified)
inactive: endpoint: median survival time, dose: 12.5 mg/kg/injection, schedule: Q01DX005 (ip), vehicle: distilled water + Tween-80 101 % of control | endpoint: median survival time, dose: 25.0 mg/kg/injection, schedule: Q01DX005 (ip), vehicle: distilled water + Tween-80 107 % of control | endpoint: median survival time, dose: 50.0 mg/kg/injection, schedule: Q01DX005 (ip), vehicle: distilled water + Tween-80 98 % of control | endpoint: median survival time, dose: 100.0 mg/kg/injection, schedule: Q01DX005 (ip), vehicle: distilled water + Tween-80 104 % of control | endpoint: median survival time, dose: 200.0 mg/kg/injection, schedule: Q01DX005 (ip), vehicle: distilled water + Tween-80 106 % of control

COC(=O)C(NC(C)=O)C(O)Cl (stereo unspecified)
inactive: [9] 102 % of control | [10] 100 % of control | [11] 98 % of control

COC1OC(COC(=O)c2ccc([N+](=O)[O-])cc2)C(SC#N)C1OC(=O)c1ccc([N+](=O)[O-])cc1 (stereo unspecified)
inactive: endpoint: mean survival time, dose: 50.0 mg/kg/injection, schedule: Q01DX001 (ip), vehicle: saline 101 % of control | endpoint: mean survival time, dose: 100.0 mg/kg/injection, schedule: Q01DX001 (ip), vehicle: saline 101 % of control | endpoint: mean survival time, dose: 200.0 mg/kg/injection, schedule: Q01DX001 (ip), vehicle: saline 91 % of control | endpoint: mean survival time, dose: 400.0 mg/kg/injection, schedule: Q01DX001 (ip), vehicle: saline 101 % of control

CCCCCCCCCCCCCC(CCCCCCCC)CCCCCCCC
inactive: endpoint: mean survival time, dose: 100.0 mg/kg/injection, schedule: Q01DX001 (ip), vehicle: saline sonified 111 % of control | endpoint: mean survival time, dose: 200.0 mg/kg/injection, schedule: Q01DX001 (ip), vehicle: saline sonified 104 % of control | endpoint: mean survival time, dose: 400.0 mg/kg/injection, schedule: Q01DX001 (ip), vehicle: saline sonified 101 % of control

N#CC(c1ccccc1)C1CCCCC1 (stereo unspecified)
inactive: endpoint: mean survival time, dose: 75.0 mg/kg/injection, schedule: Q01DX009 (ip), vehicle: saline 95 % of control | endpoint: mean survival time, dose: 150.0 mg/kg/injection, schedule: Q01DX009 (ip), vehicle: saline 106 % of control | endpoint: mean survival time, dose: 300.0 mg/kg/injection, schedule: Q01DX009 (ip), vehicle: saline 108 % of control

O=C(O)C1(c2ccccc2)CC1
inactive: endpoint: mean survival time, dose: 100.0 mg/kg/injection, schedule: Q01DX009 (ip), vehicle: saline sonified 88 % of control | [4] 97 % of control | endpoint: mean survival time, dose: 200.0 mg/kg/injection, schedule: Q01DX009 (ip), vehicle: saline sonified 92 % of control | [5] 97 % of control | endpoint: mean survival time, dose: 400.0 mg/kg/injection, schedule: Q01DX009 (ip), vehicle: saline sonified 94 % of control | [6] 110 % of control

[Cl][Pt+2][Cl].[NH-]c1ccc(CC(=O)O)cc1[NH-]
inactive: endpoint: mean survival time, dose: 3.13 mg/kg/injection, schedule: Q04DX003 (ip), vehicle: water 103 % of control | endpoint: mean survival time, dose: 6.25 mg/kg/injection, schedule: Q04DX003 (ip), vehicle: water 105 % of control | endpoint: mean survival time, dose: 12.5 mg/kg/injection, schedule: Q04DX003 (ip), vehicle: water 101 % of control | endpoint: mean survival time, dose: 25.0 mg/kg/injection, schedule: Q04DX003 (ip), vehicle: water 116 % of control

Cc1ccc(SCc2c(COc3ccc(Cl)cc3)sc3ccc(Cl)cc23)cc1
inactive: [4] 92 % of control | [5] 92 % of control | [6] 94 % of control

Cc1cc(=O)c(C(=O)O)c(C)[nH]1
inactive: [12] 86 % of control | [13] 86 % of control | endpoint: mean survival time, dose: 400.0 mg/kg/injection, schedule: Q04DX002 (ip), vehicle: saline with Tween-80 91 % of control

Nc1c(Cl)cccc1C(=O)c1ccccc1C(=O)O
inactive: [3] 97 % of control | [4] 101 % of control | [7] 95 % of control | [5] 101 % of control | [8] 101 % of control | [6] 103 % of control

COc1ccc2cc(O)ccc2c1
inactive: [3] 96 % of control | [4] 104 % of control | [7] 98 % of control | [5] 113 % of control | [8] 100 % of control | [6] 90 % of control

O=C(COc1ccc(Cl)cc1Cl)OCCI
inactive: [12] 97 % of control | [13] 102 % of control

Cc1ccc(O)c(C)n1
inactive: [9] 104 % of control | [10] 98 % of control | [11] 97 % of control

Cc1cc(=O)c(Cl)cc(=O)[nH]1
inactive: endpoint: mean survival time, dose: 12.5 mg/kg/injection, schedule: Q01DX001 (ip), vehicle: saline with Tween-80 95 % of control | endpoint: mean survival time, dose: 25.0 mg/kg/injection, schedule: Q01DX001 (ip), vehicle: saline with Tween-80 95 % of control

Cc1ncc([N+](=O)[O-])n1CCSC(N)=O
inactive: endpoint: mean survival time, dose: 12.5 mg/kg/injection, schedule: Q01DX009 (ip), vehicle: saline with Tween-80 103 % of control | [1] 96 % of control | [2] 102 % of control | [3] 100 % of control | [7] 100 % of control | [8] 100 % of control
